According to patent publication US9643951B2, “Compound having somatostatin receptor agonistic activity and pharmaceutical use thereof” (ONO PHARMACEUTICAL CO., LTD., priority 2013, dated 2017):

What was measured:
human SSTR2 = biological target: T1, human SSTR2 (Homo sapiens, UniProt P30874); experiment: Evaluation of SSTR2 agonistic activity using cells expressing human SSTR2 (suppression of forskolin-stimulated cAMP production, SSTR2-CHO-K1); format: cell-based
T1 construct: Myc; expressed in transfected cells
Method: Evaluation of SSTR2 Agonistic Activity Using Cells Expressing Human SSTR2
(1) Isolation of Human SSTR2 Gene
Human brain cDNA was purchased from Ambion (catalogue No.: 7962; Lot No.: 040200121). PCR primers, hSSTR2_F1_XhoI: 5′-[…]-3′ (SEQ ID NO: 1) and hSSTR2_R1_EcoRI: 5′-[…]-3′ (SEQ ID NO: 2) were designed on the basis of the sequence GenBank NM_001050.
PCR reaction (95° C. for 2 min.→[98° C. for 10 sec., 60° C. for 30 sec. and 68° C. for 90 sec.]×30 cycles) was carried out using the human brain cDNA as a template and using KOD-plus-(TOYOBO Co., Ltd.). The amplified PCR product was subjected to 1% agarose gel electrophoresis, purified using QIAquick Gel Extraction Kit (QIAGEN) and digested with restriction enzymes XhoI and EcoRI. The digested fragments were ligated to an expression vector (pIRESneo-Myc) using the DNA Ligation Kit Ver. 2 (Takara) and used for transformation of E. coli DH5a. The plasmid pIRESneo-Myc/hSSTR2 was prepared and the DNA sequence thereof was confirmed.
(2) Culture of CHO-K1 Cells
CHO-K1 (−) was cultured in Ham's F-12 medium (containing foetal bovine serum (10%), penicillin (100 U/mL) and streptomycin (0.1 mg/mL)). The transduced cells were cultured in the same medium supplemented with Geneticin (1 mg/mL).
(3) Transduction of CHO-K1 Cells
CHO-K1(−) cells were transduced with the plasmid pIRESneo-Myc/hSSTR2 using Lipofectamine 2000 (Invitrogen). After 48 hours, selection was carried out by replacing the medium with the one containing 1 mg/mL of Geneticin to establish a stable overexpressing cell line (SSTR2-CHO-K1).
(4) Evaluation of SSTR2 Agonistic Activity
The human SSTR2 agonistic activity of a test compound was evaluated according to the following procedures by using a suppression activity of intracellular cyclic AMP (cAMP) production by forskolin stimulation as an index. SSTR2-CHO-K1 cells suspended in Ham's F-12 medium (containing foetal bovine serum (10%), penicillin (100 U/mL) and streptomycin (0.1 mg/mL)) supplemented with 0.25 mg/mL of Geneticin were inoculated into a 96-well plate at a density of 4.0×10^4 cells/0.1 mL per well. On the next day, the medium was removed and washed twice with 0.1 mL of wash buffer [0.1% bovine serum albumin (BSA), 20 mmol/L 4-(2-hydroxyethyl)-1-piperazineethane sulphonic acid (HEPES)-containing Hank's balanced salt solution (HBSS)]. An assay buffer [[…] 3-isobutyl-1-methylxanthine (IBMX), 0.1% BSA, 20 mmol/L HEPES-containing HBSS] was added to the wells at 0.06 mL per well and the plate was incubated for 15 minutes under the conditions of 5% carbon dioxide and 37° C. Thereafter, an assay buffer containing a test compound at a concentration twice as high as the final concentration and 0.02 mmol/L of forskolin was added to wells at 0.06 mL per well and the plate was incubated for 30 minutes under the conditions of 5% carbon dioxide and 37° C. Thereafter, the Assay/Lysis buffer included in the cAMP-Screen® kit (available from Applied Biosystems) was added to wells at 0.12 mL per well and the plate was incubated for 30 minutes under the conditions of 5% carbon dioxide and 37° C. The concentration of cAMP in samples were measured by ELISA according to the instruction of the kit.

[1] = Human hepatic microsome stability test; format: in vitro ADME; conditions: human hepatic microsomes 1 mg/mL; 60 minutes; test compound 0.001 mmol/L; 37° C.
Method: Human Hepatic Microsome Stability Test
To a reaction vessel heated to 37° C. in a water bath, 0.392 mL of phosphate buffer (0.1 mol/L, pH 7.4) containing human hepatic microsomes (1 mg/mL, Xenotech) and NADPH-Co-factor (NADP+1.3 mmol/L, BD-Bioscience) was added and pre-incubated for 5 minutes. A 50% acetonitrile solution (0.008 mL) containing 0.05 mmol/L of a test compound was added thereto to initiate the enzyme reaction (final concentration of the test compound: 0.001 mmol/L). Immediately after initiation of the reaction and at 60 minutes thereafter, 0.050 mL of the reaction solution was respectively collected, which was immediately added to an acetonitrile solution (0.2 mL) containing an internal standard (45 nmol/L, 1-[3-(3,5-dimethylphenyl)-4-quinolinyl]-4-piperidineamine) to terminate the enzyme reaction.
The residual rate (%), which is indicative of stability of the test compound, was calculated using the ratio of peak areas between the test compound and the internal substance determined by LC/MS/MS (TSQ Quantum Discovery MAX, Thermo) analysis of the sample thus prepared by the above procedures followed by filtration, and the equation: {[residual rate (%)=[peak area of a test compound in a sample at 60 minutes after initiation of the reaction/peak area of the internal standard]/[peak area of the test compound in the sample immediately after initiation of the reaction/peak area of the internal standard]×100}.

[2] = system: growth hormone (GH) secretion; experiment: Evaluation of suppression of growth hormone (GH) secretion using rats (GHRH-induced); format: in vivo; conditions: Rattus norvegicus, Procedure (B): oral administration 8 hours beforehand, 1 mg/kg, read-out: percentage of suppression of GH secretion
Method: Evaluation of Suppression of Growth Hormone (GH) Secretion Using Rats
[Procedure (A): Administration of a Test Compound 30 Minutes Beforehand]
A medium (distilled water (Otsuka distilled water, Otsuka Pharmaceutical Factory, […]) IGS rats (Charles River Laboratories Japan, Inc.)) and after 27 minutes, the animals were administered with 50 mg/kg of pentobarbital sodium (Somnopentyl, Kyoritsu Seiyaku Corporation) via the tail vein for anaesthesia. Three minutes after administration of pentobarbital sodium, the rats were administered with 0.01 mg/kg of growth hormone-releasing hormone (GHRH, Bachem) via the tail vein to induce GH secretion. In order to measure the blood GH concentration, 0.2 mL of blood was collected through the jugular vein at 5 minutes after administration of GHRH. The collected blood was centrifuged at 4° C., 13,000×g for 5 minutes to obtain plasma. The blood GH concentration was measured by using Rat/Mouse Growth Hormone ELISA (Millipore) following the instruction of the kit. The percentage (%) of suppression of GH secretion was determined by using the obtained blood GH concentration and the equation {[suppression (%) of GH secretion]=([blood GH concentration of the group administered with the medium]−[blood GH concentration of the group administered with a test compound])/[blood GH concentration of the group administered with the medium]×100}. In the equation, the group administered with the medium represents the group of animals administered with the medium and the group administered with a test compound represents the group of animals administered with a test compound dissolved in the medium.
[Procedure (B): Administration of a Test Compound 8 Hours Beforehand]
A medium (distilled water (Otsuka distilled water, Otsuka Pharmaceutical Factory, […]) IGS rats (Charles River Laboratories Japan, Inc.)) and after 7 hours and 57 minutes, the animals were administered with 50 mg/kg of pentobarbital sodium (Somnopentyl, Kyoritsu Seiyaku Corporation) via the tail vein for anaesthesia. Three minutes after administration of pentobarbital sodium, the rats were administered with 0.01 mg/kg of growth hormone-releasing hormone (GHRH, Bachem) via the tail vein to induce GH secretion. The rest of the procedure is the same as in [Procedure (A)] described above.

[3] = Evaluation of cytotoxicity using cultured human hepatocytes (intracellular ATP); format: cell-based; conditions: read-out: IC50 of cytotoxicity (concentration at which 50% of the luminescence is suppressed)
Method: Evaluation of Cytotoxicity Using Cultured Human Hepatocytes
Frozen adhesive human hepatocytes were thawed, suspended in a hepatocellular medium (HCM) purchased from Lonza and inoculated to a 96-well plate coated with collagen. The culture medium of the hepatocytes cultured overnight in an incubator (5% carbon dioxide, 95% air, 37° C.) was exchanged to the medium containing a test compound at a concentration of 0, 12.5, 25, 50, 100, 200 or 400 (×10^−6 mol/L) and the cells were further cultured for 24 hours. Cytotoxicity was evaluated by measuring the intracellular ATP concentration. Specifically, using the Promega Celltiter-Glo luminescent assay kit available from Promega, cells were lysed in the assay buffer included in the kit and the concentration of ATP released from the cells was measured according to the luminescence resulting from luciferin-luciferase enzyme activity. The luminescence was measured on the SpectraMax plate reader from Molecular Devices. The extent of cytotoxicity of a test compound is represented by the concentration (IC50) of the compound at which 50% of the luminescence is suppressed.

T1 sequence (P30874 whole entry): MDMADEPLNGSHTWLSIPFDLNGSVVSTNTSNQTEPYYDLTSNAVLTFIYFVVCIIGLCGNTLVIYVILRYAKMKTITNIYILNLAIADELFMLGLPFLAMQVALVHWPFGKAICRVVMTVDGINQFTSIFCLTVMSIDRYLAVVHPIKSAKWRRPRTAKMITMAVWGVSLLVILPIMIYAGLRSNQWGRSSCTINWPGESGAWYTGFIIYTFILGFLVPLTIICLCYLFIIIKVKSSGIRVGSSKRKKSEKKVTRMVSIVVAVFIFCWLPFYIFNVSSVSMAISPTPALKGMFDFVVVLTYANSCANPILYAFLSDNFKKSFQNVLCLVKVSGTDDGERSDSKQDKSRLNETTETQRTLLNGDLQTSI

Row | EC50 (human SSTR2) [nM] | residual rate [1] [%] | Structure (SMILES) | inhibition in vivo at 1 mg/kg [2] [%] | IC50 at 24 h [3] [nM]
1 | 0.47 |  | CO[C@@H]1CN(c2c(-c3ccc(C(F)(F)F)cc3)cncc2-c2cc(Cl)cc(Cl)c2)CC[C@H]1N (racemic) [Example 2(6), rac-(3R,4R)-1-{3-(3,5-dichlorophenyl)-5-[4-(trifluoromethyl)phenyl]-4-pyridinyl}-3-methoxy-4-piperidineamine] |  | 
2 | 0.17 |  | CO[C@@H]1CN(c2c(-c3ccc(C(F)(F)F)cc3)cncc2-c2cc(Cl)cc(Cl)c2)CC[C@@H]1N (racemic) [Example 2(7), rac-(3R,4S)-1-{3-(3,5-dichlorophenyl)-5-[4-(trifluoromethyl)phenyl]-4-pyridinyl}-3-methoxy-4-piperidineamine] |  | 
3 | 0.031 | 94.6 | NC1CCN(c2c(-c3ccc(C(F)(F)F)cc3)cncc2-c2cc(Cl)cc(Cl)c2)CC1 [Example 1, 1-{3-(3,5-dichlorophenyl)-5-[4-(trifluoromethyl)phenyl]-4-pyridinyl}-4-piperidineamine] | 93 | 19000
4 | 0.013 | 100.0 | N#CC1(c2ccc(-c3cncc(-c4cc(Cl)cc(Cl)c4)c3N3CCC(N)CC3)cc2)CC1 [Example 2(2), 1-{4-[4-(4-amino-1-piperidinyl)-5-(3,5-dichlorophenyl)-3-pyridinyl]phenyl}cyclopropanecarbonitrile] | 93 | 11000
5 | 0.024 | 94.0 | CC(C)(C#N)c1ccc(-c2cncc(-c3cc(Cl)cc(Cl)c3)c2N2CCC(N)CC2)cc1 [Example 2(4), 2-{4-[4-(4-amino-1-piperidinyl)-5-(3,5-dichlorophenyl)-3-pyridinyl]phenyl}-2-methylpropanenitrile] | 88 | 13000
6 | 0.05 | 53.1 | N#CC1(c2ccc(-c3cncc(-c4cc(Cl)cc(Cl)c4)c3N3CC[C@@H]4NCCO[C@H]4C3)cc2)CC1 [Example 2(5), 1-(4-{5-(3,5-dichlorophenyl)-4-[(4aS,8aS)-octahydro-6H-pyrido[3,4-b][1,4]oxazin-6-yl]-3-pyridinyl}phenyl)cyclopropanecarbonitrile] | 85 | 19000
7 | 0.027 | 89.9 | N[C@@H]1CCN(c2c(-c3ccc(C(F)(F)F)cc3)cncc2-c2cc(Cl)cc(Cl)c2)C[C@@H]1O [Example 6, (3S,4R)-4-amino-1-{3-(3,5-dichlorophenyl)-5-[4-(trifluoromethyl)phenyl]-4-pyridinyl}-3-piperidinol] | 89 | 

More lines, now with the values behind:

Row | Structure (SMILES) | EC50 (human SSTR2) [nM] | residual rate [1] [%] | inhibition in vivo at 1 mg/kg [2] [%] | IC50 at 24 h [3] [nM]
8 | NC1CCN(c2c(-c3ccc(OC(F)F)cc3)cncc2-c2cc(F)cc(Cl)c2)CC1 [Example 2(1), 1-{3-(3-chloro-5-fluorophenyl)-5-[4-(difluoromethoxy)phenyl]-4-pyridinyl}-4-piperidineamine] | 0.041 | 100.0 | 91 | 19000
9 | NC1CCN(c2c(-c3ccc(OC(F)F)cc3)cncc2-c2cc(Cl)cc(Cl)c2)CC1 [Example 2(3), 1-{3-(3,5-dichlorophenyl)-5-[4-(difluoromethoxy)phenyl]-4-pyridinyl}-4-piperidineamine] | 0.021 | 96.4 | 88 | 9000
10 | NC1CCN(c2c(-c3ccc(C(F)(F)F)cc3)cncc2-c2cc(F)cc(Cl)c2)CC1 [Example 2, 1-{3-(3-chloro-5-fluorophenyl)-5-[4-(trifluoromethyl)phenyl]-4-pyridinyl}-4-piperidineamine] | 0.083 | 88.0 | 93 | 10000
11 | N#Cc1cccc(/C=C/c2cncc(-c3cc(Cl)cc(Cl)c3)c2N2CCC(N)CC2)c1 [Example 4(1), 3-{(E)-2-[4-(4-amino-1-piperidinyl)-5-(3,5-dichlorophenyl)-3-pyridinyl]vinyl}benzonitrile] | 0.038 | 49.9 | 84 | 
12 | Cc1cc(C)cc(-c2cnc3cc(Cl)c(-c4cnn(C)c4)cc3c2OCC[C@H]2CCCCN2)c1 [formula (M), reference compound] |  |  |  | 13000
13 | Cc1cc(C)cc(-c2cncc(-c3nc4c(C)cc(C)cc4[nH]3)c2N2CCC(N)CC2)c1 [formula (P), reference compound] |  | 1.2 |  | 
